Measurements reported in PubChem BioAssay AID2060890 (Molecular Pharmacology Branch, DTP, NCI, 2025).
pIC50: −log10 of the molar value.

System: LG0703-F948-PDC complex spheroid viability
Test: Anticancer human tumor LG0703-F948-PDC patient-derived lung adenocarcinoma cell line growth inhibition [RAS]
Conditions: for pIC50: curve of first compound; for viability, T/C: stronger effect = lower value
Excerpt: RAS pathway inhibitors in Combinations in Complex Spheroids
A high-throughput screen of multi-cell type tumor spheroids was designed to identify active combinations of RAS pathway inhibitors and targeted small molecules. Complex spheroids include a stromal component modeled by human endothelial cells (HUVEC) and fibroblasts modeled by human mesenchymal stem cells (MSCs). The concentration ranges selected for each drug and investigational agent were based upon clinically achievable concentrations if the clinical Cmax of the agent was known.
Compounds. The drugs and investigational agents: abemaciclib (NSC768073), cobimetinib (NSC768068), divarasib (GDC6063, NSC841802), docetaxel (NSC628503), GDC-1971 (RLY-1971, NSC841576), gemcitabine (NSC613327), inavolisib (NSC800729), ipatasertib (NSC767898), KB-0742 (NSC834161), MRTX-1133 (NSC836407), osimertinib (NSC779217), RMC-4630 (NSC839698), RMC-6236 (NSC851965), RMC-6291 (NSC852671), Ro-3306 (NSC812927), sapanisertib (NSC764658), SN-38 (NSC673596), staurosporine (NSC755774), SY5609 (NSC837396), and tovorafenib (DAY101, NSC766906), were obtained from the National Cancer Institute (NCI) Developmental Therapeutics Program Chemical Repository. The FDA-approved anticancer drug set is available from the NCI Developmental Therapeutics Program. […] The stock solutions were prepared in dimethyl sulfoxide (DMSO, Sigma-Aldrich, St. Louis, MO, cat. D2650) at 800-fold the tested concentration and stored at -70 degrees C prior to their use. All drugs and investigational agents were tested over a range starting from a high concentration at or near the clinical Cmax and decreasing in half-log increments. If the clinical Cmax for an agent had not been determined, the highest concentration tested was 10 microM.
Cell Culture. All cells were maintained in an incubator at 37 degrees C and 5% CO2 with 95% humidity. The PDC lines were cultured according to standard operating procedures established by the NCI PDMR. All PDCs were thawed and cultured in Matrigel-coated flasks prepared with a working solution of 1X Ham's F-12 nutrient mix, without supplementation (Invitrogen, Waltham, MA, cat. 11765054), 100 U/mL penicillin-streptomycin (Invitrogen, cat. 15140122), and 2.5% Matrigel (Corning Inc., Corning, NY, cat. 354248) for the first three passages. The 362531-283-R-J2-PDC and 782815-120-R-J1-PDC lines were cultured in 6C/Colon 1B media, which includes advanced DMEM/F-12 (Thermo Fisher Scientific, cat. 12634028), 10 mM HEPES (Thermo Fisher Scientific, cat. 15630080), 1X GlutaMAX supplement (Thermo Fisher Scientific, cat. 35050061), 0.1 mg/mL primocin (InvivoGen, San Diego, CA, cat. ant-pm-2), 10% defined fetal bovine serum, heat inactivated (HyClone Laboratories Inc., Logan, UT, cat. SH30070.03HI), 50% L-WRN conditioned media (ATCC, cat. CRL-3276), 1.25 mM N-Acetyl-L-cysteine (Sigma-Aldrich, cat. A9165), 10 mM nicotinamide (Sigma-Aldrich, cat. N0636), 1X B-27 supplement (Thermo Fisher Scientific, cat. 17504044), 1X N-2 supplement (Thermo Fisher Scientific, cat. 17502048), 50 ng/mL human EGF (Thermo Fisher Scientific, cat. PHG0311), and 10 microM Y-27632 dihydrochloride (Tocris Bioscience, cat. 1254). The K12877-001-R-J1-PDC line was cultured in 6I media, which includes all 6C/Colon 1B media plus 10 ng/mL human FGF-10 (PeproTech, cat. 100-26), 1 ng/mL human FGF-2 (PeproTech, cat. 100-18B), 1 µM prostaglandin E2 (Tocris Bioscience, cat. 2296), […] hydrocortisone (Sigma-Aldrich, cat. H4001), and […] bovine insulin (Sigma-Aldrich, cat. I6634). The K86415-001-R-J1-PDC line was cultured in 6D media, which includes all 6C/Colon 1B media components minus the L-WRN conditioned media. The 485176-168-R4-J1-PDC was cultured in PANC media, which includes all 6C/Colon 1B media plus 100 ng/mL human FGF-10 (PeproTech, cat. 100-26), 500 nM SB-431542 (Selleckchem, cat. S1067), and 10 nM gastrin (Tocris Bioscience, cat. 3006). […]
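Note: spheroids exposed to agents for 7 days.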
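Throughout, for viability, T/C: 100% = DMSO vehicle wells.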

Question: With `CC(=O)OC12COC1CC(O)C1(C)C(=O)C(O)C3=C(C)C(OC(=O)C(O)C(NC(=O)OC(C)(C)C)c4ccccc4)CC(O)(C(OC(=O)c4ccccc4)C21)C3(C)C` (centres undefined) + C#Cc1c(F)ccc2cc(O)cc(-c3ncc4c(N5CC6CCC(C5)N6)nc(OCC56CCCN5CC(F)C6)nc4c3F)c12 as the compound, how does the pIC50 (second compound 0.0316 µM) read?
Answer: > 7.50

Question: What about the pIC50 (second compound 0.1 µM) of the same compound?
Answer: > 7.50

Question: What about the pIC50 (second compound 0.316 µM) of the same compound?
Answer: > 7.50

Question: And the pIC50 (second compound 1 µM)?
Answer: > 7.50

Question: And the pIC50 (second compound 3.16 µM)?
Answer: > 7.50

Question: What about the pIC50 (second compound 10 µM) of the same compound?
Answer: > 7.50

Question: And the viability, T/C (second compound 0.0316 µM, first compound 0.0316 µM)?
Answer: 28.1%

Question: And the viability, T/C (second compound 0.0316 µM, first compound 0.1 µM)?
Answer: 22.9%

Question: And the viability, T/C (second compound 0.0316 µM, first compound 0.316 µM)?
Answer: 23.7%

Question: And the viability, T/C (second compound 0.0316 µM, first compound 1 µM)?
Answer: 27.4%

Question: What about the viability, T/C (second compound 0.0316 µM, first compound 3.16 µM) of the same compound?
Answer: 33.1%

Question: And the viability, T/C (second compound 0.0316 µM, first compound 10 µM)?
Answer: 27.8%

Question: What about the viability, T/C (second compound 0.1 µM, first compound 0.0316 µM) of the same compound?
Answer: 23.5%

Question: What about the viability, T/C (second compound 0.1 µM, first compound 0.1 µM) of the same compound?
Answer: 27.3%

Question: What about the viability, T/C (second compound 0.1 µM, first compound 0.316 µM) of the same compound?
Answer: 24.9%

Question: And the viability, T/C (second compound 0.1 µM, first compound 1 µM)?
Answer: 32%

Question: And the viability, T/C (second compound 0.1 µM, first compound 3.16 µM)?
Answer: 32.9%

Question: What about the viability, T/C (second compound 0.1 µM, first compound 10 µM) of the same compound?
Answer: 25.2%

Question: And the viability, T/C (second compound 0.316 µM, first compound 0.0316 µM)?
Answer: 27.2%

Question: What about the viability, T/C (second compound 0.316 µM, first compound 0.1 µM) of the same compound?
Answer: 22.6%

Question: And the viability, T/C (second compound 0.316 µM, first compound 0.316 µM)?
Answer: 27.7%

Question: What about the viability, T/C (second compound 0.316 µM, first compound 1 µM) of the same compound?
Answer: 26.2%

Question: What about the viability, T/C (second compound 0.316 µM, first compound 3.16 µM) of the same compound?
Answer: 24.8%

Question: What about the viability, T/C (second compound 0.316 µM, first compound 10 µM) of the same compound?
Answer: 22.9%

Question: What about the viability, T/C (second compound 1 µM, first compound 0.0316 µM) of the same compound?
Answer: 25.5%

Question: What about the viability, T/C (second compound 1 µM, first compound 0.1 µM) of the same compound?
Answer: 26.4%

Question: And the viability, T/C (second compound 1 µM, first compound 0.316 µM)?
Answer: 24.6%

Question: And the viability, T/C (second compound 1 µM, first compound 1 µM)?
Answer: 26.4%

Question: What about the viability, T/C (second compound 1 µM, first compound 3.16 µM) of the same compound?
Answer: 22.7%

Question: What about the viability, T/C (second compound 1 µM, first compound 10 µM) of the same compound?
Answer: 20.1%

Question: What about the viability, T/C (second compound 3.16 µM, first compound 0.0316 µM) of the same compound?
Answer: 23.5%

Question: And the viability, T/C (second compound 3.16 µM, first compound 0.1 µM)?
Answer: 22.8%

Question: What about the viability, T/C (second compound 3.16 µM, first compound 0.316 µM) of the same compound?
Answer: 23%

Question: And the viability, T/C (second compound 3.16 µM, first compound 1 µM)?
Answer: 18.9%

Question: And the viability, T/C (second compound 3.16 µM, first compound 3.16 µM)?
Answer: 16.3%

Question: What about the viability, T/C (second compound 3.16 µM, first compound 10 µM) of the same compound?
Answer: 16.1%

Question: What about the viability, T/C (second compound 10 µM, first compound 0.0316 µM) of the same compound?
Answer: 17.2%

Question: What about the viability, T/C (second compound 10 µM, first compound 0.1 µM) of the same compound?
Answer: 18.5%

Question: And the viability, T/C (second compound 10 µM, first compound 0.316 µM)?
Answer: 16%

Question: What about the viability, T/C (second compound 10 µM, first compound 1 µM) of the same compound?
Answer: 11.8%

Question: What about the viability, T/C (second compound 10 µM, first compound 3.16 µM) of the same compound?
Answer: 8.84%

Question: What about the viability, T/C (second compound 10 µM, first compound 10 µM) of the same compound?
Answer: 5.54%

Question: With `CCc1c2c(nc3ccc(O)cc13)-c1cc3c(c(=O)n1C2)COC(=O)[C@]3(O)CC` + C#Cc1c(F)ccc2cc(O)cc(-c3ncc4c(N5CC6CCC(C5)N6)nc(OCC56CCCN5CC(F)C6)nc4c3F)c12 as the compound, how does the pIC50 (second compound 0.0316 µM) read?
Answer: 7.42

Question: What about the pIC50 (second compound 0.1 µM) of the same compound?
Answer: 7.44

Question: And the pIC50 (second compound 0.316 µM)?
Answer: 7.32

Question: And the pIC50 (second compound 1 µM)?
Answer: 7.46

Question: And the pIC50 (second compound 3.16 µM)?
Answer: 7.49

Question: What about the pIC50 (second compound 10 µM) of the same compound?
Answer: > 9.02

Question: What about the viability, T/C (second compound 0.0316 µM, first compound 0.000949 µM) of the same compound?
Answer: 98.4%

Question: What about the viability, T/C (second compound 0.0316 µM, first compound 0.003 µM) of the same compound?
Answer: 90.5%

Question: And the viability, T/C (second compound 0.0316 µM, first compound 0.00949 µM)?
Answer: 72.3%

Question: What about the viability, T/C (second compound 0.0316 µM, first compound 0.03 µM) of the same compound?
Answer: 48.3%

Question: And the viability, T/C (second compound 0.0316 µM, first compound 0.0949 µM)?
Answer: 41.7%

Question: And the viability, T/C (second compound 0.0316 µM, first compound 0.3 µM)?
Answer: 19.7%

Question: And the viability, T/C (second compound 0.1 µM, first compound 0.000949 µM)?
Answer: 92.4%

Question: And the viability, T/C (second compound 0.1 µM, first compound 0.003 µM)?
Answer: 91.1%

Question: What about the viability, T/C (second compound 0.1 µM, first compound 0.00949 µM) of the same compound?
Answer: 77.6%

Question: What about the viability, T/C (second compound 0.1 µM, first compound 0.03 µM) of the same compound?
Answer: 49.8%

Question: And the viability, T/C (second compound 0.1 µM, first compound 0.0949 µM)?
Answer: 36.4%

Question: What about the viability, T/C (second compound 0.1 µM, first compound 0.3 µM) of the same compound?
Answer: 20.1%

Question: What about the viability, T/C (second compound 0.316 µM, first compound 0.000949 µM) of the same compound?
Answer: 85.3%

Question: And the viability, T/C (second compound 0.316 µM, first compound 0.003 µM)?
Answer: 77.7%

Question: And the viability, T/C (second compound 0.316 µM, first compound 0.00949 µM)?
Answer: 81.5%

Question: What about the viability, T/C (second compound 0.316 µM, first compound 0.03 µM) of the same compound?
Answer: 51.7%

Question: What about the viability, T/C (second compound 0.316 µM, first compound 0.0949 µM) of the same compound?
Answer: 41.4%

Question: And the viability, T/C (second compound 0.316 µM, first compound 0.3 µM)?
Answer: 20.2%

Question: What about the viability, T/C (second compound 1 µM, first compound 0.000949 µM) of the same compound?
Answer: 65.5%

Question: And the viability, T/C (second compound 1 µM, first compound 0.003 µM)?
Answer: 61.7%

Question: And the viability, T/C (second compound 1 µM, first compound 0.00949 µM)?
Answer: 61.7%

Question: And the viability, T/C (second compound 1 µM, first compound 0.03 µM)?
Answer: 50.9%

Question: What about the viability, T/C (second compound 1 µM, first compound 0.0949 µM) of the same compound?
Answer: 38.4%

Question: What about the viability, T/C (second compound 1 µM, first compound 0.3 µM) of the same compound?
Answer: 25.3%

Question: What about the viability, T/C (second compound 3.16 µM, first compound 0.000949 µM) of the same compound?
Answer: 58.5%

Question: And the viability, T/C (second compound 3.16 µM, first compound 0.003 µM)?
Answer: 60.3%

Question: And the viability, T/C (second compound 3.16 µM, first compound 0.00949 µM)?
Answer: 50.3%

Question: What about the viability, T/C (second compound 3.16 µM, first compound 0.03 µM) of the same compound?
Answer: 52.7%

Question: And the viability, T/C (second compound 3.16 µM, first compound 0.0949 µM)?
Answer: 30.4%

Question: And the viability, T/C (second compound 3.16 µM, first compound 0.3 µM)?
Answer: 17%

Question: And the viability, T/C (second compound 10 µM, first compound 0.000949 µM)?
Answer: 41%

Question: What about the viability, T/C (second compound 10 µM, first compound 0.003 µM) of the same compound?
Answer: 49.4%

Question: What about the viability, T/C (second compound 10 µM, first compound 0.00949 µM) of the same compound?
Answer: 46.9%

Question: What about the viability, T/C (second compound 10 µM, first compound 0.03 µM) of the same compound?
Answer: 33.9%

Question: What about the viability, T/C (second compound 10 µM, first compound 0.0949 µM) of the same compound?
Answer: 30.4%

Question: And the viability, T/C (second compound 10 µM, first compound 0.3 µM)?
Answer: 15.7%
